Reference: publication doi:10.1101/735001v1 (bioRxiv, 2019)
Where a SMILES comes first, the peptide text is derived from it. [ ]: non-standard residue; d: D form. Dmt = Cc1cc(O)cc(C)c1C[C@H](N)C(=O)O

Columns and labels:
[1] = Acrylamide dynamic quenching; type: physicochemical
[2] = system: LUVs containing 20 mol% TOCL in POPC; assay: Endogenous 2',6'-Dmt fluorescence measurement of SS-31 membrane binding; settings: for increase in SS-31 emission intensity relative to emission in the absence of LUVs: 20% TOCL, mean (SD), n=6, SD; for n value ([L]eff:[P] at saturation) from time course titration inflection point: 20 mol% TOCL
[3] = system: LUVs containing 20 mol% MLCL in POPC; assay: as above; settings: 20% MLCL, mean (SD), n=6
[4] = system: LUVs containing 20 mol% POPG in POPC; assay: as above; settings: for increase in SS-31 emission intensity relative to emission in the absence of LUVs: 20% POPG, mean (SD), n=6, SD
[5] = system: LUVs with POPC only; assay: as above; settings: 100% POPC, high salt (100 mM KCl), 20 μM SS-31, [L]eff 100 µM, mean (SD), n=6
[6] = system: LUVs containing 10 mol% TOCL; assay: SS-31 titration time course binding saturation analysis; settings: low salt
[7] = system: LUVs containing 20% TOCL; assay: Acrylamide dynamic quenching; type: binding; settings: 20 μM SS-31 with LUVs 20% TOCL, n=3
[8] = system: LUVs containing 20% MLCL; assay: Acrylamide dynamic quenching; type: binding; settings: 20 μM SS-31 with LUVs 20% MLCL, n=3
[9] = system: LUVs containing 20% POPG; assay: Acrylamide dynamic quenching; type: binding; settings: 20 μM SS-31 with LUVs 20% POPG, n=3
[10] = aqueous buffer, comparison of SS-31 with L-Tyr (Fig. S3C), n=3

Row | Structure (SMILES) | Stern-Volmer constant KSV (acrylamide quenching) [1, 10] [M⁻¹] | increase in SS-31 emission intensity relative to emission in the absence of LUVs ([2]; high salt (100 mM KCl)) | increase in SS-31 emission intensity relative to emission in the absence of LUVs ([2]; low salt, 20 μM SS-31, [L]eff 100 µM) | n value ([L]eff:[P] at saturation) from time course titration inflection point ([2]; high salt) | n value ([L]eff:[P] at saturation) from time course titration inflection point ([2]; low salt, SS-31 added in 2 µM increments, acrylamide in medium) | increase in SS-31 emission intensity relative to emission in the absence of LUVs ([3]; high salt (100 mM KCl)) | increase in SS-31 emission intensity relative to emission in the absence of LUVs ([3]; low salt) | increase in SS-31 emission intensity relative to emission in the absence of LUVs ([4]; high salt (100 mM KCl)) | increase in SS-31 emission intensity relative to emission in the absence of LUVs ([4]; low salt) | n value ([L]eff:[P] at saturation) from time course titration inflection point ([4]; 20 mol% POPG, low salt) | increase in SS-31 emission intensity relative to emission in the absence of LUVs [5] | n value ([L]eff:[P] at saturation) from time course titration inflection point [6] | Stern-Volmer constant KSV (acrylamide quenching) ([1]; 20 μM SS-31 in the absence of membranes, high salt (100 mM KCl)) [M⁻¹] | Stern-Volmer constant KSV (acrylamide quenching) ([1]; 20 μM SS-31 in the absence of membranes, low salt) [M⁻¹] | Stern-Volmer constant KSV (acrylamide quenching) ([7]; high salt) [M⁻¹] | Stern-Volmer constant KSV (acrylamide quenching) ([7]; low salt) [M⁻¹] | Stern-Volmer constant KSV (acrylamide quenching) ([8]; high salt) [M⁻¹] | Stern-Volmer constant KSV (acrylamide quenching) ([8]; low salt) [M⁻¹] | Stern-Volmer constant KSV (acrylamide quenching) ([9]; high salt) [M⁻¹] | Stern-Volmer constant KSV (acrylamide quenching) ([9]; low salt) [M⁻¹]
1 | N[C@@H](Cc1ccc(O)cc1)C(=O)O [L-Tyr, reference compound] | 17.1 |  |  |  |  |  |  |  |  |  |  |  |  |  |  |  |  |  |  | 
2 | Cc1cc(O)cc(C)c1C[C@H](NC(=O)[C@H](N)CCCNC(=N)N)C(=O)N[C@@H](CCCCN)C(=O)N[C@@H](Cc1ccccc1)C(N)=O [SS-31, D-Arg-2’6’-dimethylTyr-Lys-Phe-NH2] (H-[dR][Dmt]KF-NH2) | 4.8 | 1.72 (0.08) | 2.33 (0.07) | ~ 9 | ~ 5 | 1.79 (0.05) | 2.48 (0.05) | 1.45 (0.04) | 2.16 (0.04) | ~11 | 1.08 (0.04) | ~ 12 | 5.4 | 5.7 | 1.20 | 0.15 | 1.04 | 0.02 | 2.19 | 0.21
